The subject of assay [1] is Human keratinocytes. Description: Electric Cell-Substrate Impedance Sensing (ECIS) capacitance contraction of human keratinocytes. Format: cell-based. Conditions: for Electrical Capacitance Contraction of Human Keratinocytes (AUC of capacitance, Mean ± Std Dev): integrated over 5 hrs, 40,000 Hz, pH 7.2-7.3; for contraction or shrinkage of keratinocyte cell area as measured by keratinocyte capacitance (in words): compared to media treatment alone. From the text:
Electrical changes due to the presence of a cell layer can be used to calculate cell morphological parameters including the barrier function of the cell layer (the spacing between the ventral side of the cell and the substratum) and the cell membrane capacitance (Giaever and Keese, Proceedings of National Academy of Sciences 88, 7896, 1991).
Current flowing between a reference electrode, onto which cells or cell cultures may be attached, and a larger counter electrode using normal culture medium as the electrolyte can be used to detect changes in cell morphological parameters. In the absence of cells on the electrode, the current flows unrestrained from the surface of the electrodes. In the presence of cells attached and spread upon the electrode, the current must now flow in the spaces under and between the cells, as the cell membrane act as insulators.
The electrical changes of living, viable cells can be sampled rapidly, in real time, over an extended period of time, and the measurements are the measurement is non-invasive. An example of this technology is the Electric Cell-substrate Impedance Sensing System (ECIS) available from Applied Biophysics (Troy, N.Y.). Electrical changes in keratinocyte morphological parameters can be used to identify novel compounds for anti-aging benefits.
Human keratinocytes and Epilife culture media (Cascade Biologics, Portland, Oreg.) were cultured at 37° C. in a humidified atmospheres of 5% CO2/95% air. Electric Cell-substrate Impedance Sensing System (ECIS) electrode arrays (Applied Biophysics , Troy, N.Y.) were coated with 0.01 mg/ml Laminin V (Sigma Aldirch, St Louis, Mo.) in sterile Phosphate Buffered Saline (Gibco Life Sciences, San Diego, Calif.). Human keratinocytes were prepared at a density of 0.125×10^6 cells/mL in Epilife culture media. Human keratinocytes were plated at 5.0×10^4 cells/electrode well and cultured at 37° C. in a humidified atmospheres of 5% CO2/95% O2 for 24-48 hrs. Capacitance changes (in nanofarads, nF) of keratinocytes were measured using a Electric Cell-substrate Impedance Sensing System (ECIS) Model 1600R (Applied Biophysics, Troy, N.Y.) using the method of Wegener and co-workers (Wegener J, Keese C R, Giaever I, Exp Cell Res. 259:158-166, 2000) at a frequency of 40,000 Hz. Capacitance readings are inversely related to the contact area of a cell onto the ECIS electrode array, the greater the cell area contacting the electrode the smaller the capacitance readings (Wegener J, Keese C R, Giaever I, Exp Cell Res. 259:158-166, 2000). Conversely as a cell contracts or shrinks, the contact area of the cell onto the ECIS electrode array decreases, resulting in an increase in the capacitance readings. […] These calculations are based on the trapezoid theorem. The AUC of the media curve was subtracted from the compound treated group. A positive AUC difference indicates keratinocyte contraction, the greater the AUC difference the greater the amount of keratinocyte contraction. […] DMAE is a known skin-firming agent. The compounds were diluted into Hank's Buffered Salt Solution (HBSS; Gibco Life Sciences, San Diego, Calif.) and the pH of the solution adjusted to between pH 7.2-7.3. The pH of the HBSS without compounds (“Media Alone”) was also adjusted to pH 7.2-7.3.

Assay [2] deals with Human keratinocytes. Description: Visual contraction of human keratinocytes by real time visual microscopy (cell area). Format: cell-based. The procedure:
Human keratinocytes and Epilife culture media (Cascade Biologics, Portland, Oreg.) were cultured at 37° C. in a humidified atmospheres of 5% CO2/95% air. Glass Cover Slides (Applied Biophysics, Troy, N.Y.) were coated with 0.01 mg/ml Laminin V (Sigma Aldirch, St Louis, Mo.) in sterile Phosphate Buffered Saline (Gibco Life Sciences, San Diego, Calif.). Human keratinocytes were prepared at a density of 0.125×10^6 cells/mL in Epilife culture media. Human keratinocytes were plated at 3.75×10^4 cells/well on a 6 well plate containing Laminin coated coverslips and cultured at 37° C. in a humidified atmospheres of 5% CO2/95% O2 for 48 hrs. Individual coverslips were transferred to a open bath imaging chamber (Warner Instruments, Hamden, Conn.) mounted on a Leica inverted microscope (Leitz DM1L) with an attached CCD camera. Cells were perfused with Hank's Buffered Salt Solution (HBSS; Gibco Life Sciences, San Diego, Calif.) at flow rate of 1 ml/min using a peristaltic pump (Cole Parmer, Vernon Hills, Ill.). […] The pH of the HBSS without DMAE or THPED. (“Media Alone”) was also adjusted to pH 7.2-7.3. […] Cell area was determined using Scion Image software (Version 4.0.2), and reductions in cell area were reported as the ratio of cell area after treatment to cell area prior to treatment

Assay [3] deals with Human keratinocytes. Briefly: Reversal of visual contraction of human keratinocytes after removal of DMAE. Format: cell-based. Conditions: for Reversal of Visual Contraction of Human Keratinocytes (Mean ± Std Dev): 0.1% DMAE. As for the experimental part: Human keratinocytes and Epilife culture media (Cascade Biologics, Portland, Oreg.) were cultured at 37° C. in a humidified atmospheres of 5% CO2/95% air. Glass Cover Slides (Applied Biophysics, Troy, N.Y.) were coated with 0.01 mg/ml Laminin V (Sigma Aldirch, St Louis, Mo.) in sterile Phosphate Buffered Saline (Gibco Life Sciences, San Diego, Calif.). Human keratinocytes were prepared at a density of 0.125×10^6 cells/mL in Epilife culture media. Human keratinocytes were plated at 3.75×10^4 cells/well on a 6 well plate containing Laminin coated coverslips and cultured at 37° C. in a humidified atmospheres of 5% CO2/95% O2 for 48 hrs. Individual coverslips were transferred to a open bath imaging chamber (Warner Instruments, Hamden, Conn.) mounted on a Leica inverted microscope (Leitz DM1L) with an attached CCD camera. Cells were perfused with Hank's Buffered Salt Solution (HBSS; Gibco Life Sciences, San Diego, Calif.) at flow rate of 1 ml/min using a peristaltic pump (Cole Parmer, Vernon Hills, Ill.). […] The pH of the HBSS without DMAE or THPED. (“Media Alone”) was also adjusted to pH 7.2-7.3. […] Images were collected of a field of keratinocytes containing 10-20 cells at 0, 10 and 20 minutes of treatment using ImagePro software. Cell area was determined using Scion Image software (Version 4.0.2), and reductions in cell area were reported as the ratio of cell area after treatment to cell area prior to treatment
In the following example, keratinocytes were prepared and plated on coverslips as described above.

The test system of assay [4] is granular cells in the viable epidermis. Briefly: Confocal reflectance microscopy of upper inner arm skin, cell size decrease after product application. Format: in vivo, human. Conditions: two microliters/cm^2, imaged over 20 minutes, eight volunteers, gel with 3% DMAE. As for the experimental part: A study was conducted using a VivaScope 1000 Confocal Reflectance Microscope from Lucid (Rochester, N.Y.) and a water immersion objective of NA 1.2-0.7 (60×). Sites on the upper inner arm were imaged immediately after product application (two microliters/cm^2 was applied) and every 2 minutes for an interval of 20 minutes. […] The confocal microscope was set up to acquire 16 frames from the top of the stratum corneum in steps of 3 micrometers, allowing observation of changes in cell size/morphology within a 48 micrometer depth region. As described by Rajadhyaksha et al., J. Invest. Dermatol. 113(3):293-303 (1999), the size of the cells varies (in diameter) with skin depth from 25-30 micromerters in the granular cells to 15-25 micrometers in spinous cells layers. In this study, cells were observed approximately 21 micrometers from the top of the stratum corneum, primarily granular cells, or at the top of the spinous cells. The exact same cells were compared in the initial maps and in the final maps in order to avoid any interference of cell size differences with the depth as described by Rajadhyaksha et al. After image acquisition, we used an enhancement routine developed in IDL® Software (Research System Inc., Boulder, Colo.) and the cells size area were measured using Image Pro Plus® (Media Cybernetics Inc., Silver Springs, Md.). […]

Molecules are shown by their SMILES.

For `CN(C)CCO` [DMAE, 2-(dimethylamino)ethanol], the “Electrical Capacitance Contraction of Human Keratinocytes (AUC of capacitance, Mean ± Std Dev)” value in assay [1] (0.01% V/V) is given as 22.82 ± 4.1; in assay [1] (0.05% V/V), 28.8 ± 5.6; in assay [1] (0.1% V/V) it was 36.1 ± 5.9. Moreover, the “contraction or shrinkage of keratinocyte cell area as measured by keratinocyte capacitance (in words)” value in assay [1] is listed as “dose-dependent contraction or shrinkage”. The “contraction or shrinkage of keratinocyte cell area as determined by keratinocyte surface area (in words)” value in assay [2] is listed as “dose-dependent contraction or shrinkage”. Moreover, the “Visual Contraction of Human Keratinocytes (reduction in cell area, Mean ± Std Dev)” value in assay [2] (0.01%, 10 Min) is 4.82% ± 0.68%; in assay [2] (0.01%, 20 Min), 6.22% ± 0.95%; in assay [2] (0.05%, 10 Min), 16.40% ± 2.58%; in assay [2] (0.05%, 20 Min), 18.04% ± 3.09%; in assay [2] (0.1%, 10 Min), 23.61% ± 3.03%; in assay [2] (0.1%, 20 Min), 33.83% ± 2.96%. Further, the figures for the “Reversal of Visual Contraction of Human Keratinocytes (Mean ± Std Dev)” value in assay [3] (20 Min Treatment with DMAE), in assay [3] (30 Min After Removal of DMAE) and in assay [3] (60 Min After Removal of DMAE) were 32.17% ± 2.65%, 24.25% ± 3.23% and 16.546% ± 3.89%, respectively. Moreover, the “reversibility of keratinocyte contraction (in words)” value in assay [3] (after removal of DMAE) was “reversal of the DMAE-induced keratinocyte contraction”. In addition, the “Percentage of Decreases in Cell Size” value in assay [4] was 15%.
As to `CC(O)CN(CCN(CC(C)O)CC(C)O)CC(C)O` (stereo not drawn) [THPED, N,N,N′,N′-Tetrakis(2-hydroxypropyl)ethylenediamine], the “Electrical Capacitance Contraction of Human Keratinocytes (AUC of capacitance, Mean ± Std Dev)” value in assay [1] (0.01% V/V) amounted to 29.2 ± 3.2; in assay [1] (0.05% V/V) it was 35.1 ± 5.3; in assay [1] (0.1% V/V), 44.5 ± 9.1. Besides, the “contraction or shrinkage of keratinocyte cell area as measured by keratinocyte capacitance (in words)” value in assay [1] is reported as “dose-dependent contraction or shrinkage”. In assay [2], the “contraction or shrinkage of keratinocyte cell area as determined by keratinocyte surface area (in words)” value is “dose-dependent contraction or shrinkage”. The “Visual Contraction of Human Keratinocytes (reduction in cell area, Mean ± Std Dev)” value in assay [2] (0.1%, 2 Min) was 32.9% ± 11.3%; in assay [2] (0.1%, 10 Min) it was 37.9% ± 10.7%; in assay [2] (0.1%, 20 Min) it was 47.3% ± 12.7%.

Source of the values: patent US20060193777A1, “Method of screening compounds for potential efficacy for the treatment of signs of aging” (priority 2005, published 2006).
